Laboratory results taken from patent US10342777B2, “Caffeoylquinic acid-rich extract and preparation as well as use thereof” (Macau University of Science and Technology, priority 2015, dated 2019).

Tests used:
TNF-α = experiment: Cardiac tissue TNF-α level by ELISA 24 h after I/R; assay type: in vivo, rat; settings: 5 mg/kg
Protocol: (§1) An ischemia reperfusion injury was produced in rat heart based on Buerke's description with our modifications (Buerke et al., Proc Natl Acad Sci USA, 1995, 92:8031-8035). Sixty rats were randomly divided into six groups (n=10 per group): (I) Sham group (given saline vehicle without I/R); (II) I/R group with saline alone; (Ill) I/R group with 10 mg/kg of the caffeoylquinic acid-rich extract of example 1; (IV) I/R group with 20 mg/kg of the caffeoylquinic acid-rich extract of example 1; (V) I/R group with 40 mg/kg of the caffeoylquinic acid-rich extract of example 1; […] The vehicle or drugs were administered 1 min before reperfusion via single bolus tail vein injection. […] Using a PowerLab (ADInstruments Pty Ltd., Castle Hill, Australia), mean aortic pressure (MAP) was recorded from the Millar catheter. Electrocardiogram (ECG) in lead II was also recorded through the needle electrodes attached to the limbs. The heart rate and ST-segment elevation were calculated off-line. […] Levels of TNF-α and IL-6 were measured using ELISA kits for TNF-α (RayBiotech, Inc., Norcross Ga.) and IL-6 (R & D System). […] The contents of total protein in the supernatants were determined by using a Bio-Rad kit (Bio-Rad Laboratories, Hercules, Calif., USA). […] To determine the effect of a caffeoylquinic acid-rich extract on pro-inflammatory cytokines, cardiac tissue levels of TNF-α and IL-6 after I/R were evaluated.

[1] = tested on: myocardial I/R injury in rat heart; experiment: ECG (lead II) ST-segment depression and heart rate 24 h after I/R; assay type: in vivo; settings: 5 mg/kg; 24 h reperfusion
Protocol: An ischemia reperfusion injury was produced in rat heart based on Buerke's description with our modifications (Buerke et al., Proc Natl Acad Sci USA, 1995, 92:8031-8035). Sixty rats were randomly divided into six groups (n=10 per group): (I) Sham group (given saline vehicle without I/R); (II) I/R group with saline alone; (Ill) I/R group with 10 mg/kg of the caffeoylquinic acid-rich extract of example 1; (IV) I/R group with 20 mg/kg of the caffeoylquinic acid-rich extract of example 1; (V) I/R group with 40 mg/kg of the caffeoylquinic acid-rich extract of example 1; […] The vehicle or drugs were administered 1 min before reperfusion via single bolus tail vein injection. […] Using a PowerLab (ADInstruments Pty Ltd., Castle Hill, Australia), mean aortic pressure (MAP) was recorded from the Millar catheter. Electrocardiogram (ECG) in lead II was also recorded through the needle electrodes attached to the limbs. The heart rate and ST-segment elevation were calculated off-line. […] Electrocardiogram (ECG) in lead II was recorded through the needle electrodes attached to the limbs continuously for 15 min with an electrocardiograph (ASB240U, […], China). The heart rate and ST-segment depression were calculated off-line. […] The amplitude of ST-segment and heart rate were recorded and used as the index of ischemic electrocardiograph changes. […]

[2] = tested on: Lactate dehydrogenase (LDH); experiment: Serum LDH activity 24 h after I/R (commercial kit); assay type: in vivo, rat; settings: 5 mg/kg, P<0.01
Protocol: (§2) An ischemia reperfusion injury was produced in rat heart based on Buerke's description with our modifications (Buerke et al., Proc Natl Acad Sci USA, 1995, 92:8031-8035). Sixty rats were randomly divided into six groups (n=10 per group): (I) Sham group (given saline vehicle without I/R); (II) I/R group with saline alone; (Ill) I/R group with 10 mg/kg of the caffeoylquinic acid-rich extract of example 1; (IV) I/R group with 20 mg/kg of the caffeoylquinic acid-rich extract of example 1; (V) I/R group with 40 mg/kg of the caffeoylquinic acid-rich extract of example 1; […] The vehicle or drugs were administered 1 min before reperfusion via single bolus tail vein injection. Rats were anesthetized with pentobarbital sodium (70 mg/kg body weight) by an i.p. injection of a mixture of 20% Dorminal (1 ml contains 200 mg pentobarbital sodium, Alfasan) and sterile saline at a ratio of 1:3 (VN). Using a PowerLab (ADInstruments Pty Ltd., Castle Hill, Australia), mean aortic pressure (MAP) was recorded from the Millar catheter. Electrocardiogram (ECG) in lead II was also recorded through the needle electrodes attached to the limbs. The heart rate and ST-segment elevation were calculated off-line. The chest was opened at the left fourth intercostal space. […] Activities of LDH and CK-MB were determined by using commercial assay kits according to manufacturer's instructions. […]

JNK = experiment: Western blot of phospho-JNK in left ventricular tissue after I/R; assay type: in vivo, rat; settings: 5 mg/kg before reperfusion
IL-6 = experiment: Cardiac tissue IL-6 level by ELISA 24 h after I/R; assay type: in vivo, rat; settings: 5 mg/kg
Protocol: as §1

[3] = tested on: Creatine kinase-MB (CK-MB); experiment: Serum CK-MB activity 24 h after I/R (commercial kit); assay type: in vivo, rat; settings: 5 mg/kg, P<0.01
Protocol: as §2

[4] = tested on: myocardial I/R injury in rat heart; experiment: Myocardial infarct size by TTC staining after ischemia/reperfusion; assay type: in vivo; settings: 5 mg/kg i.v. tail vein 1 min before reperfusion; positive control; vehicle 15.2±1.4%
Protocol: An ischemia reperfusion injury was produced in rat heart based on Buerke's description with our modifications (Buerke et al., Proc Natl Acad Sci USA, 1995, 92:8031-8035). Sixty rats were randomly divided into six groups (n=10 per group): (I) Sham group (given saline vehicle without I/R); (II) I/R group with saline alone; (Ill) I/R group with 10 mg/kg of the caffeoylquinic acid-rich extract of example 1; (IV) I/R group with 20 mg/kg of the caffeoylquinic acid-rich extract of example 1; (V) I/R group with 40 mg/kg of the caffeoylquinic acid-rich extract of example 1; […] The vehicle or drugs were administered 1 min before reperfusion via single bolus tail vein injection. […] Using a PowerLab (ADInstruments Pty Ltd., Castle Hill, Australia), mean aortic pressure (MAP) was recorded from the Millar catheter. Electrocardiogram (ECG) in lead II was also recorded through the needle electrodes attached to the limbs. The heart rate and ST-segment elevation were calculated off-line. […] The images of the slice were captured by a LEICA digital camera 480 and infarct area in each slice was measured by computed planimetry with an image analyzing program Image J1.26 (Wayne Rasband, National Institutes of Health, USA). Then the infarct area of each slice was determined by manual delineation of TTC-negative pale area of the image. […]

Structure (SMILES): O=C(/C=C/c1ccc(O)c(O)c1)OCCc1ccccc1 [CAPE, 2-phenylethyl (2E)-3-(3,4-dihydroxyphenyl)acrylate]
- cardiac tissue level of TNF-α (TNF-α): markedly decreased
- I/R-induced ST-segment depression [1]: significant protective effects
- heart rate decrease after I/R [1]: slight effect without significant difference
- serum LDH [2]: 287±18.8 U/L
- JNK phosphorylation (JNK): markedly reduced
- cardiac tissue level of IL-6 (IL-6): markedly decreased
- serum CK-MB [3]: 913±40.2 U/L
- myocardial infarct size [4]: 7.9±0.9%
